“Also recorded” adds a separate entry of the source.
Experiments:
Format in all cases: cell-based, human
miR-130/301 family = test: RT-qPCR of miR-130/301 family members after transfection of oligonucleotide inhibitors (specificity), PAECs; conditions: normoxia and hypoxia
From the text: FIGS. 14A-14C show the comparison of the specificity of miR-130/301 oligonucleotide inhibitors. (FIG. 14A) Overview of the miRNA silencing approach using seed-targeting tiny locked nucleic acid (LNA) molecules. Tiny LNAs were designed as fully LNA-modified oligonucleotides complementary to the seed region of the miR-130/301 family. The high binding affinity of tiny LNA enables functional inhibition of co-expressed members of miRNA seed families, which leads to de-repression of target mRNAs. Sequences shown in FIG. 14A are miR-130a (SEQ ID NO: 4), miR-130b (SEQ ID NO: 5), miR-301a (SEQ ID NO: 6), miR-301b (SEQ ID NO: 7) and tiny-LNA-130 ([…] SEQ ID NO: 3). […] In the setting of exposure to hypoxia (0.2% O2; 24 h) or normoxia (21% O2; 24 h), expression levels of miR-130/301 family members in PAECs (FIG. 14B) and PASMCs (FIG. 14C) were quantified after transfection with anti-miR-130a versus control (anti-miR-NC) (left panels) or tiny-LNA-130 versus control (tiny-LNA-NC) (right panels). […]
Cells were homogenized in 2 ml of QiaZol reagent (Qiagen). […] Total RNA concentration was determined using a ND-1000 micro-spectrophotometer (NanoDrop Technologies).
Mature miRNA expression was evaluated using TaqMan MicroRNA Assays (Life Technologies/Applied Biosystems) and the Applied Biosystems 7900HT Fast Real Time PCR device (Life Technologies/Applied Biosystems). […]

PAECs [1] = test: Proliferation of PAECs (cell counting, BrdU incorporation, PCNA)
From the text: Pre-miRNA oligonucleotides (pre-miR-130a, pre-miR-204, pre-miR-424, and pre-miR-503 and negative control pre-miR-NC1 and premiR-NC2, Life Technologies), anti-miRNAs oligonucleotides (anti-miR-130a and anti-miR-NC, ThermoScientific), tiny LNA oligonucleotides (tiny-130: 5′-[…]-3′ (SEQ ID NO: 3), and tiny-NC 5′-[…]-3′ (SEQ ID NO: 51), Exiqon), siRNAs (PPARγ and scrambled control, Santa Cruz Biotechnology; HIF-1α, HIF-2α, and scrambled control, Life Technologies) were commercially purchased. PAECs and PASMCs were plated and transfected 24 h later at 70-80% confluence using pre-miRNA (5 nM), anti-miRNA (20 nM), tiny-LNA (20 nM) or siRNA (25 nM) with Lipofectamine 2000 reagent (Life Technologies), according to the manufacturers' instructions.
Exponentially growing cells were transfected, collected at the indicated times and counted.
Cells were lysed in RIPA buffer (Santa Cruz Biotechnology) and the protein concentration determined using a Bradford assay (Biorad). Protein lysate ([…]) were resolved by SDS-PAGE and transferred onto a PVDF membrane (Biorad). Membranes were blocked in 5% non-fat milk in TN buffer (50 mM Tris-HCl pH 7.4, 150 mM NaCl) and incubated in the presence of the primary and then secondary antibodies. After washing in TN buffer containing 0.1% Tween, immunoreactive bands were visualized with the ECL system (Amersham Biosciences). […] Primary antibodies for STAT3 (#9139) and P-STAT3 (Tyr-705; #9145) were purchased from Cell Signaling. Primary antibodies against actin (ab 3280), α-smooth-muscle-actin (ab 32575), CD31 (ab28364), and PCNA (ab 29) were obtained from Abcam. Appropriate secondary antibodies (anti-rabbit and anti-mouse) coupled to HRP were used (Santa Cruz Biotechnology).

PAECs [2] = test: Caspase 3/7 assay, PAECs
Description: Caspase 3,7 activity was quantified using the Caspase-Glo 3/7 Assay (Promega), according to manufacturer's instructions. Briefly, cells were plated in triplicate in 96-well plates and transfected with the appropriate oligonucleotide. Forty-eight hours after transfection, cells were cultured in the presence or absence of serum for twenty-four hours. Cells were then incubated for 1 h with the caspase substrates, and luminescence was quantified.

PASMCs = test: Contraction assay of PASMCs in matrigel; conditions: conditioned media from transfected PAECs; rosiglitazone in PAECs; ambrisentan on PASMCs
Description: (FIG. 40A) A schematic diagram of co-culture experiments: conditioned media from transfected PAECs (miRNA, anti-miRNA, tiny-LNA or siRNA under normoxic or hypoxic conditions) were filtered and applied onto naïve PASMCs cultured in matrigel. At specific times, PASMCs or PASMC-matrigel cultures were arrested and analyzed for STAT3 activation (phosphorylation) or contraction, respectively.
50000 PASMC were embedded in 100 ul of matrix gel as previous described (Gagiolli et al) and plated into well of a 96 well plate. After 1 h at 37° C., these matrices were overlaid with 100 ul of conditioned PAECs serum-free medium (transfected with siRNA, miRNA or anti-miRNA and supplemented with Ambriesentan 10 uM). Every 12 h, medium was changed and at day 4 the gels were photographed and the relative diameter of the well and the gel were measured using ImageJ. The percentage contraction was calculated using the formula 100*(well diameter−gel diamter)/well diameter. For the co-culture experiment, conditioned media from PAEC transfected as indicated were applied on PASMCs or Fibroblast previously starved (24 h). Cells were collected at different time and analyzed by western blotting.

Q: For “tiny-LNA-130: fully LNA-modified tiny LNA oligonucleotide 5′-ATTGCACT-3′ (SEQ ID NO: 3) complementary to the seed region of the miR-130/301 family (all LNA, backbone and methylation of C not given here)”, which “expression of all miR-130/301 family members” value (miR-130/301 family) is on record?
A: down-regulated; also recorded: effective inhibitors of the entire miR-130/301 family

Q: What about the number of cells (PAECs [1]; counted each day during 3 days) of the same substance?
A: greater decrease in the number of cells compared with anti-miR-130a

Q: And the “BrdU incorporation (proliferation)” value (PAECs [1]; exponentially growing, BrdU pulse 1 h)?
A: greater decrease in proliferation compared with anti-miR-130a

Q: And the PCNA expression (PAECs [1]; immunoblot 48 hours after transfection)?
A: more substantial decrease

Q: What about the “caspase 3/7 activity” value (PAECs [2]; 24 h serum deprivation) of the same substance?
A: partially protected cells from caspase 3/7 induction

Q: What about the “caspase 3/7 activity” value (PAECs [2]; serum-replete conditions) of the same substance?
A: No significant modulation

Q: What about the “actinomyosin contraction of PASMCs” value (PASMCs) of the same substance?
A: abrogated

Source: patent US20170226507A1, “COORDINATE CONTROL OF PATHOGENIC SIGNALING BY THE MIR-130/301 FAMILY IN PULMONARY HYPERTENSION AND FIBROPROLIFERATIVE DISEASES” (The Brigham and Women's Hospital, Inc., priority 2014, published 2017)
